# Columns and labels:
# human erythrocytes [1] = assay: Hemolytic activity (MHC), Protocol B, 18 hours; details: for MHC (μg/ml) hRBC: maximal peptide concentration with no hemolysis after 18 hours
# Method: In order to evaluate the biological activities of the D-enantiomeric peptides, namely D-NAL and D-NKD, the hemolytic activity of the peptides against human erythrocytes was determined as the maximal peptide concentration that produces no hemolysis after 18 hours of incubation at 37° C.
# (§1) Measurement of Hemolytic Activity—Protocol A: Peptide samples were added to 1% human erythrocytes in phosphate buffered saline (0.08M NaCl; 0.043M Na2PO4; 0.011M KH2PO4) and reactions were incubated at 37° C. for 12 hours in microtiter plates. Peptide samples were diluted 2 fold in order to determine the concentration that produced no hemolysis. […] Hemoglobin release was determined spectrophotometrically at 562 nm. The hemolytic titer was the highest 2-fold dilution of the peptide that still caused release of hemoglobin from erythrocytes. The control for no release of hemoglobin was a sample of 1% erythrocytes without any peptide added. […] Peptide samples were diluted 2 fold in order to determine the concentration that produced no hemolysis. […] Hemoglobin release was determined spectrophotometrically at 570 nm. The hemolytic titer was the highest 2-fold dilution of the peptide that still caused release of hemoglobin from erythrocytes. The control for no release of hemoglobin was a sample of 1% erythrocytes without any peptide added.
# gram-negative bacteria = assay: MIC, microtiter dilution, Gram-negative bacteria (geometric mean of 6 strains); assay type: cell-based; details: geometric mean of MIC values from all 6 Gram-negative strains of Table 11
# Method: (§2) The geometric mean MIC values from 6 microbial strains in this table were calculated to provide an overall evaluation of antimicrobial activity against gram-negative bacteria.
# In Table 11, geometric mean MIC was calculated to provide an overall view of antimicrobial activity of the peptides against Gram-negative bacteria and was also used to calculate the therapeutic index.
# (§3) Measurement of Antimicrobial Activity—Minimal inhibitory concentrations (MICs) were determined using a standard microtiter dilution method in LB (Luria-Bertani) no-salt medium (10 g of tryptone and 5 g of yeast extract per liter). Briefly, cells were grown overnight at 37° C. in LB and diluted in the same medium. […] Plates were incubated at 37° C. for 24 hours and MICs determined as the lowest peptide concentration that inhibited growth. Alternatively, minimal inhibitory concentrations were determined using a standard microtiter dilution method in a Mueller-Hinton (MH) medium. Briefly, cells were grown overnight at 37° C. in MH broth and diluted in the same medium. […] Plates were incubated at 37° C. for 24 hours and MICs determined as the lowest peptide concentration that inhibited growth. However, for MIC determination of Pseudomonas aeruginosa clinical isolates, brain heart infusion (BH1) medium was used instead of MH broth. In addition, the bacteria were diluted to a final inoculum of 1×10^6 colony-forming units/ml.
# [2] = system: Staphylococcus epidermidis
# [3] = system: Pseudomonas aeruginosa strains
# Method: Pseudomonas aeruginosa strains used in this study are a diverse group of clinical isolates from different places in the world. […] The geometric mean MIC values from six Pseudomonas aeruginosa strains were calculated to provide an overall evaluation of antimicrobial activity of these peptides against Pseudomonas aeruginosa. Fold improvement was calculated by comparing the geometric mean MIC value of each peptide to that of the parent peptide V681.
# as §3
# For the Leu-substituted peptides, the hemolytic activity against human erythrocytes was determined as the maximal peptide concentration that produces no hemolysis after 18 hours of incubation at 37° C. Antimicrobial activity of the peptides was determined on a diverse group of Pseudomonas aeruginosa clinical isolates. […] The geometric mean MIC values from six Pseudomonas strains in Table 14 were calculated to provide an overall evaluation of antimicrobial activity of the peptides with different hydrophobicities.
# E. faecalis = system: E. faecalis
# Method: as §3
# gram-positive bacteria = system: gram-positive bacteria
# Method: as §3
# [4] = C610 abs
# Method: as §2, §3
# [5] = system: E. coli (UB 1005 wt and DC2 abs)
# Method: as §2, §3
# S. typhimurium C610 abs = details: C610 abs
# Method: as §2, §3
# P. aeruginosa H187 wt = system: P. aeruginosa H187 wt
# Method: as §2, §3
# [6] = RP-HPLC temperature profiling (hydrophobicity and self-association/dimerization parameter PA); assay type: physicochemical
# Method: The retention time data for the peptides is shown in Table 5 which records retention times at 5° C., the maximal retention times and retention times at 80° C. during the temperature profiling. Temperatures of 5° C. and 80° C. were the lower and upper temperature limits of temperature profiling in RP-HPLC, representing dimerization of the peptides at 5° C. and the monomerization of peptides at 80° C. due to dissociation of the dimers. The maximal retention times represent the threshold points at which peptides transform from dimeric to monomeric form. Among the non-polar face substituted peptides, peptides with more hydrophobic substitutions (whether L- or D-amino acid substitutions) were more retained during RP-HPLC, i.e., peptides were eluted in the order of Lys, Gly, Ser, Ala, Val and Leu (Table 5). In addition, on the non-polar face, the L-analogs were always more retained than the D-diastereomers (Table 5, FIG. 5). […] In contrast, on the polar face, the elution order of peptides was not correlated with the order of amino acid side-chain hydrophobicity, e.g., PAL and PSL were more retained than PVL (Table 5); PSD was the most retained peptide among the D-amino acid substituted analogs on the polar face (Table 5).
# The ability of the D-peptides to self-associate was determined by RP-HPLC temperature profiling. […] As expected, L- and D-peptide enantiomers were totally inseparable over this temperature range, since each pair of peptides is identical in sequence and must adopt identical conformations on interacting with the reversed-phase matrix, whether in an all-L- or all-D-conformation. RP-HPLC retention behavior has been frequently utilized to represent overall peptide hydrophobicity (53, 26). In the present study, the hydrophobicity of the three peptide pairs is in the order V681/D-V681>[…]>NKL/D-NKD (Table 4), which agrees with the change in hydrophobicity of the substitutions at position 13 in order of the most hydrophobic to the least hydrophobic amino acid residue (Val in V681>Ala in NA>Lys in NK) (54). […] For example, the retention times of peptides V681/D-V681 increase with increasing temperature (up to ˜30° C.) followed by a retention time decrease with a further temperature increase. […] Since peptide C is a monomeric random coil peptide in both aqueous and hydrophobic media, its retention behavior over the temperature range 5° C. to 80° C. represents only general temperature effects on peptide retention behavior, i.e., a linear decrease in peptide retention time with increasing temperature due to greater solute diffusivity and enhanced mass transfer between the stationary and mobile phases at higher temperatures (55). Thus, after normalization to the retention times of peptide C, the retention behavior of the peptides represents only peptide self-association ability. Note that the higher the PA value, the greater the self-association ability. […] From Table 4, it is also clear that the peptide retention times at 80° C. are dramatically lower than those at 5° C.
# Elution times during RP-HPLC have frequently been utilized as a measure of relative hydrophobicity of peptide analogs (26, 31). In the current study, peptide analogs differed only by a single amino acid substitution on either the non-polar face or the polar face of V681; thus, the retention time data in Table 5 can be considered to reflect the hydrophobicity difference between peptide analogs. In order to more easily visualize the variation in hydrophobicity of the peptide analogs, the retention time data in Table 5 were normalized relative to that of the native peptide V681 at 5° C. and 80° C., respectively. Hydrophobicity relative to the native peptide V681 indicates an increase or decrease of the apparent peptide hydrophobicity with the different amino acid substitutions on the polar or non-polar face. […]
# human erythrocytes [7] = assay: Hemolytic activity (MHC), Protocol A, 12 hours; details: incubation for 12 hours at 37° C. (Tables 7 and 8)
# Method: as §1
# [8] = Circular dichroism spectroscopy of helical structure (benign buffer and 50% TFE); assay type: physicochemical; details: 25° C.
# Method: To determine the secondary structure of peptides in different environments, circular dichroism (CD) spectra of the peptide analogs were measured under physiologically related pH and ionic strength (100 mM KCl, 50 mM aq. PO4, pH 7 referred to as benign conditions) and also in 50% TFE to mimic the hydrophobic environment of the membrane. […] On the non-polar face, the native L-Val residue was critical in maintaining α-helical structure. […] Even the substitution with L-Ala, which is known to have the highest α-helical propensity of all 20 amino acids (34), could not stabilize the α-helical structure. […] It is noteworthy that, on the non-polar face, the magnitude of the helical content of L-peptides in benign buffer was related to the hydrophobicity of the substituting amino acids, i.e., NLL>NVL>NAL>NSL, NKL, again showing the importance of hydrophobicity on the non-polar face in maintaining the α-helical structure. […] However, whether L- or D-substitutions were made on the non-polar face, high helical structure could be induced by the hydrophobic environment of 50% TFE, a mimic of the membrane's hydrophobicity and α-helix inducing ability (Table 3).
# To determine the secondary structure of the D-enantiomeric peptides in different environments, CD spectra of the peptide analogs were measured under benign conditions (100 mM KCl, 50 mM KH2PO4/K2HPO4, pH 7.4, referred to as KP buffer) and also in 50% trifluoroethanol (TFE) to mimic the hydrophobic environment of the membrane. […] However, in the presence of 50% TFE, all three L-peptides were fully folded α-helical structures with similar ellipticities and helicity (Table 4).
# Characterization of Helical Structure—The mean residue molar ellipticities of peptides were determined by circular dichroism (CD) spectroscopy, using a Jasco J-720 spectropolarimeter (Jasco, Easton, Md.), at 25° C. under benign conditions (50 mM KH2PO4/K2HPO4/100 mM KCl, pH 7), as well as in the presence of an α-helix inducing solvent, 2,2,2-trifluoroethanol (TFE) (50 mM KH2PO4/K2HPO4/100 mM KCl, pH 7 buffer/50% TFE). A 10-fold dilution of a ˜500 μM stock solution of the peptide analogs was loaded into a 0.02 cm fused silica cell and its ellipticity scanned from 190 to 250 nm. The values of molar ellipticities of the peptide analogs at a wavelength of 222 nm were used to estimate the relative α-helicity of the peptides.
compound,measurement,setting,value
CC[C@@H](C)[C@@H](NC(=O)[C@@H](C)NC(=O)[C@@H](CCCCN)NC(=O)[C@@H](CC(C)C)NC(=O)[C@@H](C)NC(=O)[C@H](NC(=O)[C@@H](Cc1c[nH]cn1)NC(=O)[C@@H](CC(C)C)NC(=O)[C@H](NC(=O)[C@H](NC(=O)[C@@H](CCCCN)NC(=O)[C@H](NC(=O)[C@@H](C)NC(=O)[C@@H](CO)NC(=O)[C@@H](CCCCN)NC(=O)[C@@H](Cc1ccccc1)NC(=O)[C@H](NC(=O)[C@@H](CCCCN)NC(=O)[C@@H](CC(C)C)NC(=O)[C@@H](Cc1ccccc1)NC(=O)[C@@H](CO)NC(=O)[C@@H](CCCCN)NC(=O)[C@@H](Cc1c[nH]c2ccccc12)NC(=O)[C@@H](CCCCN)NC(C)=O)[C@H](C)O)C(C)C)[C@H](C)O)C(C)C)[C@H](C)O)C(=O)N[C@H](CO)C(=O)N[C@H](CO)C(N)=O [D-V681],MHC (μg/ml) hRBC,human erythrocytes [1]; Table 11,7.8 µg/mL
same,MHC (μg/ml) hRBC,human erythrocytes [1]; Table 12,7.8 µg/mL
same,Hemolytic activity MHC,"human erythrocytes [1]; red cells of human, 18 h",7.8 µg/mL
same,MIC (μg/ml) C. xerosis C875 wt,Corynebacterium xerosis,3.1 µg/mL
same,MIC (μg/ml) S. aureus 623 methR,Staphylococcus aureus; methicillin-resistant clinical strain,6.3 µg/mL
same,MIC (μg/ml) S. aureus 622 wt,Staphylococcus aureus; wild type strain,6.3 µg/mL
same,MIC (μg/ml) B. subtilis C971 wt,Bacillus subtilis,1.6 µg/mL
same,MIC (μg/ml) GM,gram-negative bacteria,6.3 µg/mL
same,MIC (μg/ml) S. epidermidis C621 wt,[2],1.6 µg/mL
same,MIC PAK,[3]; strain PAK,31.3 µg/mL
same,MIC PAO 1,[3]; strain PAO 1,15.6 µg/mL
same,MIC (μg/ml) E. faecalis C625 wt,E. faecalis,6.3 µg/mL
same,MIC (μg/ml) GM,gram-positive bacteria,3.5 µg/mL
same,MIC (μg/ml) St C587 wt,[4],12.5 µg/mL
same,MIC (μg/ml) E. coli C500 abs,[5]; antibiotic sensitive strain,3.1 µg/mL
same,MIC (μg/ml) E. coli C498 wt,[5]; wild-type lab strain,6.3 µg/mL
same,MIC (μg/ml) St C610 abs,S. typhimurium C610 abs,6.3 µg/mL
same,MIC (μg/ml) Pa H188 abs,P. aeruginosa H187 wt,6.3 µg/mL
same,MIC (μg/ml) Pa H187 wt,P. aeruginosa H187 wt; H187 wt,6.3 µg/mL
Ac-KWKSFLKTFKVAVKTVLHTALKAISS-NH2 [PVL],tR (min) 5° C.,[6]; RP-HPLC retention time at 5° C. during temperature profiling (measure of hydrophobicity),47.83 min
same,tR (min) 80° C.,[6]; RP-HPLC retention time at 80° C. during temperature profiling,46.18 min
same,tR (min) Max,[6]; maximal RP-HPLC retention time during temperature profiling 5-80° C.,49.93 min
same,PA (min) association parameter,[6]; maximal retention time difference relative to control peptide C within 5-80° C.,3.91 min
same,ΔtR (X-PSL) (min) 5° C.,"[6]; polar face substitutions, retention time difference relative to native peptide V681 (PSL) at 5° C., relative hydrophobicity",-0.27 min
same,ΔtR (X-PSL) (min) 80° C.,"[6]; polar face substitutions, retention time difference relative to native peptide V681 (PSL) at 80° C., relative hydrophobicity",0.35 min
same,minimal hemolytic concentration (MHC),human erythrocytes [7],7.8 µg/mL
same,% helix 50% TFE,"[8]; 50% TFE, relative to NAL in 50% TFE",80%
same,[θ]222 Benign,"[8]; benign buffer (100 mM KCl, 50 mM PO4 pH 7.0)","−7,550 deg · cm^2 · dmol^−1"
same,[θ]222 50% TFE,[8]; benign buffer diluted 1:1 (v/v) with TFE,"−23,050 deg · cm^2 · dmol^−1"
same,% helix Benign,"[8]; benign buffer, relative to NAL in 50% TFE",26%

# Reference: patent US8252737B2, “Antimicrobial peptides and methods of use” (priority 2004, dated 2012)
